From patent publication US20260022142A1, “MACROCYCLIC IMMUNOMODULATORS” (Bristol-Myers Squibb Company, priority 2022, published 2026)
Bridge positions count the residues as written; N and C are the ends. Square brackets hold non-standard residues; d marks the D form. Peptide text beside a SMILES is read from it. * marks the point of attachment. Ala(indol-2-yl) = N[C@@H](Cc1cc2ccccc2[nH]1)C(=O)O; Bip = N[C@@H](Cc1ccc(-c2ccccc2)cc1)C(=O)O; Phe(3-Me) = Cc1cccc(C[C@H](N)C(=O)O)c1; Cha = N[C@@H](CC1CCCCC1)C(=O)O; dCha = N[C@H](CC1CCCCC1)C(=O)O; dNle = CCCC[C@@H](N)C(=O)O; Carboxymethyl = O=C(O)C*; Orn = NCCC[C@H](N)C(=O)O; Aun = NCCCCCCCCCCC(=O)O; Dab = NCC[C@H](N)C(=O)O; Dap = NC[C@H](N)C(=O)O; AEEA = NCCOCCOCC(=O)O

target: T1, PD-1/PD-L1 interaction (PE-labeled human PD-L1-Ig binding to Jurkat cell line over-expressing human PD-1) (Homo sapiens, UniProt Q15116); assay: Jurkat-PD-1 Cell Binding High-Content Screening Assay (CBA); format: cell-based; settings: Jurkat cell line over-expressing human PD-1; PE-labeled PD-L1-Ig 20 nM final; read-out: Jurkat hPD1-PDL1 IC50
T1 construct: expressed in transfected cells; host or cells: Jurkat
T1 sequence (Q15116 25-288): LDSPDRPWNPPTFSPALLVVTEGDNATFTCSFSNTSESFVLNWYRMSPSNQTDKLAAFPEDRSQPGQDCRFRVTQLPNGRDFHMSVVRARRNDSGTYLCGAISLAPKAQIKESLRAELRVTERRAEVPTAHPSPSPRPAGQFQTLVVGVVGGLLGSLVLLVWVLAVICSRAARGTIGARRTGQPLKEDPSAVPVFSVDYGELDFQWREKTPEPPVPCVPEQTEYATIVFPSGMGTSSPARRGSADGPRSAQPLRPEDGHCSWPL
In short: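 First, compound is added to PD-1-expressing Jurkat cells in serum-containing DMEM and left 2 h at 37° C. Next, PE-conjugated PD-L1-Ig is introduced at 20 nM final concentration for 1 hour. Finally, cells are fixed in 4% paraformaldehyde with Hoechst 33342, washed and imaged.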

| SMILES | IC50 |
| --- | --- |
| CCCC[C@H]1NC(=O)[C@H](CCCN)NC(=O)[C@H](C(C)C)NC(=O)[C@H](Cc2ccc(-c3ccccc3)cc2)NC(=O)[C@H](C(C)C)NC(=O)[C@H](Cc2c[nH]c3ccccc23)NC(=O)[C@H](CC(=O)O)NC(=O)[C@H](Cc2ccc(OCC(=O)O)cc2)NC(=O)[C@H](CN)NC(=O)CSC[C@@H](C(=O)NCCOCCOCC(=O)N[C@@H](CCN)C(=O)NCCCCCCCCCCC(=O)O)NC(=O)[C@H](CCCCN)NC(=O)[C@H](C(C)C)NC(=O)[C@H](CC2CCCCC2)NC(=O)[C@H](CCN)NC1=O [Compound 2672] ({CH2CO}-[Dap]Y(Carboxymethyl)DWV[Bip]V[Orn][dNle][Dab][Cha]VKC[AEEA][Dab][Aun]-OH; thioether N-14) | 22.7 nM |
| CC(C)[C@@H]1NC(=O)[C@H](CC2CCCCC2)NC(=O)[C@H](CCN)NC(=O)[C@@H](CC2CCCCC2)NC(=O)[C@H](CCCN)NC(=O)[C@H](C(C)C)NC(=O)[C@H](Cc2ccc(-c3ccccc3)cc2)NC(=O)[C@H](C(C)C)NC(=O)[C@H](Cc2c[nH]c3ccccc23)NC(=O)[C@H](CC(=O)O)NC(=O)[C@H](Cc2ccc(OCC(=O)O)cc2)NC(=O)[C@H](CN)NC(=O)CSC[C@@H](C(=O)NCCOCCOCC(=O)N[C@@H](CCN)C(=O)NCCCCCCCCCCC(=O)O)NC(=O)[C@H](CCCCN)NC1=O [Compound 2673] ({CH2CO}-[Dap]Y(Carboxymethyl)DWV[Bip]V[Orn][dCha][Dab][Cha]VKC[AEEA][Dab][Aun]-OH; thioether N-14) | 22.5 nM |
| CCCC[C@H]1NC(=O)[C@H](CCCN)NC(=O)[C@H](C(C)C)NC(=O)[C@H](Cc2ccc(-c3ccccc3)cc2)NC(=O)[C@H](C(C)C)NC(=O)[C@H](Cc2cccc(C)c2)NC(=O)[C@H](CC(=O)O)NC(=O)[C@H](Cc2ccc(OCC(=O)O)cc2)NC(=O)[C@H](CN)NC(=O)CSC[C@@H](C(=O)NCCOCCOCC(=O)N[C@@H](CCN)C(=O)NCCCCCCCCCCC(=O)O)NC(=O)[C@H](CN)NC(=O)[C@H](C(C)C)NC(=O)[C@H](CC2CCCCC2)NC(=O)[C@H](CCN)NC1=O [Compound 2674] ({CH2CO}-[Dap]Y(Carboxymethyl)D[Phe(3-Me)]V[Bip]V[Orn][dNle][Dab][Cha]V[Dap]C[AEEA][Dab][Aun]-OH; thioether N-14) | 12 nM |
| Cc1cccc(C[C@@H]2NC(=O)[C@H](CC(=O)O)NC(=O)[C@H](Cc3ccc(OCC(=O)O)cc3)NC(=O)[C@H](CN)NC(=O)CSC[C@@H](C(=O)NCCOCCOCC(=O)N[C@@H](CCN)C(=O)NCCCCCCCCCCC(=O)O)NC(=O)[C@H](CN)NC(=O)[C@H](C(C)C)NC(=O)[C@H](CC3CCCCC3)NC(=O)[C@H](CCN)NC(=O)[C@@H](CC3CCCCC3)NC(=O)[C@H](CCCN)NC(=O)[C@H](C(C)C)NC(=O)[C@H](Cc3ccc(-c4ccccc4)cc3)NC(=O)[C@H](C(C)C)NC2=O)c1 [Compound 2675] ({CH2CO}-[Dap]Y(Carboxymethyl)D[Phe(3-Me)]V[Bip]V[Orn][dCha][Dab][Cha]V[Dap]C[AEEA][Dab][Aun]-OH; thioether N-14) | 24.1 nM |
| CCCC[C@H]1NC(=O)[C@H](CCCN)NC(=O)[C@H](C(C)C)NC(=O)[C@H](Cc2ccc(-c3ccccc3)cc2)NC(=O)[C@H](C(C)C)NC(=O)[C@H](Cc2cccc(C)c2)NC(=O)[C@H](CC(=O)O)NC(=O)[C@H](Cc2ccc(OCC(=O)O)cc2)NC(=O)[C@H](CN)NC(=O)CSC[C@@H](C(=O)NCCOCCOCC(=O)N[C@@H](CCN)C(=O)NCCCCCCCCCCC(=O)O)NC(=O)[C@H](CCCN)NC(=O)[C@H](C(C)C)NC(=O)[C@H](CC2CCCCC2)NC(=O)[C@H](CCN)NC1=O [Compound 2676] ({CH2CO}-[Dap]Y(Carboxymethyl)D[Phe(3-Me)]V[Bip]V[Orn][dNle][Dab][Cha]V[Orn]C[AEEA][Dab][Aun]-OH; thioether N-14) | 10.2 nM |
| Cc1cccc(C[C@@H]2NC(=O)[C@H](CC(=O)O)NC(=O)[C@H](Cc3ccc(OCC(=O)O)cc3)NC(=O)[C@H](CN)NC(=O)CSC[C@@H](C(=O)NCCOCCOCC(=O)N[C@@H](CCN)C(=O)NCCCCCCCCCCC(=O)O)NC(=O)[C@H](CCCN)NC(=O)[C@H](C(C)C)NC(=O)[C@H](CC3CCCCC3)NC(=O)[C@H](CCN)NC(=O)[C@@H](CC3CCCCC3)NC(=O)[C@H](CCCN)NC(=O)[C@H](C(C)C)NC(=O)[C@H](Cc3ccc(-c4ccccc4)cc3)NC(=O)[C@H](C(C)C)NC2=O)c1 [Compound 2677] ({CH2CO}-[Dap]Y(Carboxymethyl)D[Phe(3-Me)]V[Bip]V[Orn][dCha][Dab][Cha]V[Orn]C[AEEA][Dab][Aun]-OH; thioether N-14) | 18 nM |
| CCCC[C@H]1NC(=O)[C@H](CCCN)NC(=O)[C@H](C(C)C)NC(=O)[C@H](Cc2ccc(-c3ccccc3)cc2)NC(=O)[C@H](C(C)C)NC(=O)[C@H](Cc2cc3ccccc3[nH]2)NC(=O)[C@H](CC(=O)O)NC(=O)[C@H](Cc2ccc(OCC(=O)O)cc2)NC(=O)[C@H](CN)NC(=O)CSC[C@@H](C(=O)N[C@@H](CCN)C(=O)NCCOCCOCC(=O)NCCCCCCCCCCC(=O)O)NC(=O)[C@H](CCCCN)NC(=O)[C@H](C(C)C)NC(=O)[C@H](CC2CCCCC2)NC(=O)[C@H](CCN)NC1=O [Compound 2678] ({CH2CO}-[Dap]Y(Carboxymethyl)D[Ala(indol-2-yl)]V[Bip]V[Orn][dNle][Dab][Cha]VKC[Dab][AEEA][Aun]-OH; thioether N-14) | 15.2 nM |
| CC(C)[C@@H]1NC(=O)[C@H](CC2CCCCC2)NC(=O)[C@H](CCN)NC(=O)[C@@H](CC2CCCCC2)NC(=O)[C@H](CCCN)NC(=O)[C@H](C(C)C)NC(=O)[C@H](Cc2ccc(-c3ccccc3)cc2)NC(=O)[C@H](C(C)C)NC(=O)[C@H](Cc2c[nH]c3ccccc23)NC(=O)[C@H](CC(=O)O)NC(=O)[C@H](Cc2ccc(OCC(=O)O)cc2)NC(=O)[C@H](CN)NC(=O)CSC[C@@H](C(=O)N[C@@H](CCN)C(=O)NCCOCCOCC(=O)NCCCCCCCCCCC(=O)O)NC(=O)[C@H](CCCCN)NC1=O [Compound 2679] ({CH2CO}-[Dap]Y(Carboxymethyl)DWV[Bip]V[Orn][dCha][Dab][Cha]VKC[Dab][AEEA][Aun]-OH; thioether N-14) | 26.9 nM |
| CCCC[C@H]1NC(=O)[C@H](CCCN)NC(=O)[C@H](C(C)C)NC(=O)[C@H](Cc2ccc(-c3ccccc3)cc2)NC(=O)[C@H](C(C)C)NC(=O)[C@H](Cc2cccc(C)c2)NC(=O)[C@H](CC(=O)O)NC(=O)[C@H](Cc2ccc(OCC(=O)O)cc2)NC(=O)[C@H](CN)NC(=O)CSC[C@@H](C(=O)N[C@@H](CCN)C(=O)NCCOCCOCC(=O)NCCCCCCCCCCC(=O)O)NC(=O)[C@H](CN)NC(=O)[C@H](C(C)C)NC(=O)[C@H](CC2CCCCC2)NC(=O)[C@H](CCN)NC1=O [Compound 2680] ({CH2CO}-[Dap]Y(Carboxymethyl)D[Phe(3-Me)]V[Bip]V[Orn][dNle][Dab][Cha]V[Dap]C[Dab][AEEA][Aun]-OH; thioether N-14) | 13.2 nM |
| Cc1cccc(C[C@@H]2NC(=O)[C@H](CC(=O)O)NC(=O)[C@H](Cc3ccc(OCC(=O)O)cc3)NC(=O)[C@H](CN)NC(=O)CSC[C@@H](C(=O)N[C@@H](CCN)C(=O)NCCOCCOCC(=O)NCCCCCCCCCCC(=O)O)NC(=O)[C@H](CN)NC(=O)[C@H](C(C)C)NC(=O)[C@H](CC3CCCCC3)NC(=O)[C@H](CCN)NC(=O)[C@@H](CC3CCCCC3)NC(=O)[C@H](CCCN)NC(=O)[C@H](C(C)C)NC(=O)[C@H](Cc3ccc(-c4ccccc4)cc3)NC(=O)[C@H](C(C)C)NC2=O)c1 [Compound 2681] ({CH2CO}-[Dap]Y(Carboxymethyl)D[Phe(3-Me)]V[Bip]V[Orn][dCha][Dab][Cha]V[Dap]C[Dab][AEEA][Aun]-OH; thioether N-14) | 13 nM |
| CCCC[C@H]1NC(=O)[C@H](CCCN)NC(=O)[C@H](C(C)C)NC(=O)[C@H](Cc2ccc(-c3ccccc3)cc2)NC(=O)[C@H](C(C)C)NC(=O)[C@H](Cc2cccc(C)c2)NC(=O)[C@H](CC(=O)O)NC(=O)[C@H](Cc2ccc(OCC(=O)O)cc2)NC(=O)[C@H](CN)NC(=O)CSC[C@@H](C(=O)N[C@@H](CCN)C(=O)NCCOCCOCC(=O)NCCCCCCCCCCC(=O)O)NC(=O)[C@H](CCCNC(=N)N)NC(=O)[C@H](C(C)C)NC(=O)[C@H](CC2CCCCC2)NC(=O)[C@H](CCN)NC1=O [Compound 2682] ({CH2CO}-[Dap]Y(Carboxymethyl)D[Phe(3-Me)]V[Bip]V[Orn][dNle][Dab][Cha]VRC[Dab][AEEA][Aun]-OH; thioether N-14) | 17.4 nM |
| Cc1cccc(C[C@@H]2NC(=O)[C@H](CC(=O)O)NC(=O)[C@H](Cc3ccc(OCC(=O)O)cc3)NC(=O)[C@H](CN)NC(=O)CSC[C@@H](C(=O)N[C@@H](CCN)C(=O)NCCOCCOCC(=O)NCCCCCCCCCCC(=O)O)NC(=O)[C@H](CCCNC(=N)N)NC(=O)[C@H](C(C)C)NC(=O)[C@H](CC3CCCCC3)NC(=O)[C@H](CCN)NC(=O)[C@@H](CC3CCCCC3)NC(=O)[C@H](CCCN)NC(=O)[C@H](C(C)C)NC(=O)[C@H](Cc3ccc(-c4ccccc4)cc3)NC(=O)[C@H](C(C)C)NC2=O)c1 [Compound 2683] ({CH2CO}-[Dap]Y(Carboxymethyl)D[Phe(3-Me)]V[Bip]V[Orn][dCha][Dab][Cha]VRC[Dab][AEEA][Aun]-OH; thioether N-14) | 14.9 nM |
| Cc1cccc(C[C@@H]2NC(=O)[C@H](CC(=O)O)NC(=O)[C@H](Cc3ccc(OCC(=O)O)cc3)NC(=O)[C@H](CN)NC(=O)CSC[C@@H](C(=O)N[C@@H](CCN)C(=O)NCCOCCOCC(=O)NCCCCCCCCCCC(=O)O)NC(=O)[C@H](CN)NC(=O)[C@H](C(C)C)NC(=O)[C@H](CC3CCCCC3)NC(=O)[C@H](CCN)NC(=O)[C@@H](CC3CCCCC3)NC(=O)[C@H](CCCN)NC(=O)[C@H](C(C)C)NC(=O)[C@H](Cc3ccc(-c4ccccc4)cc3)NC(=O)[C@H](C(C)C)NC2=O)c1 [Compound 2684] ({CH2CO}-[Dap]Y(Carboxymethyl)D[Phe(3-Me)]V[Bip]V[Orn][dCha][Dab][Cha]V[Dap]C[Dab][AEEA][Aun]-OH; thioether N-14) | 36.3 nM |
